Results published in PMC5011342, “A high throughput drug screening assay to identify compounds that promote oligodendrocyte differentiation using acutely dissociated and purified oligodendrocyte precursor cells” (BMC Research Notes, 2016).
Read-outs that look alike come from different tables or passages of the source.

Legend:
expanded OPCs = assay: cells; details: for viability at 0.1 µM / viability at 1 µM / viability at 10 µM: Rattus norvegicus, 72 h
How it was run: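 Toxicity screen: compounds added at 0.1, 1 and 10 µM to PDGF-AA-expanded OPCs in 96-well plates, 3-day incubation at 37 °C, 10% CO2, then alamarBlue 1:10 for 4 h with fluorescence readout. Results set screening doses of 10/2, 2/0.4 or 0.4/0.08 µM.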

[1] = tested on: acutely dissociated and purified rat OPCs; assay: Acute OL differentiation assay (MBP expression/cell, immunofluorescent image quantification); assay type: cell-based; details: sheet "All OLga data"; for activation at 2 µM / activation at 10 µM / activation at 0.4 µM: Rattus norvegicus; for activation at 0.4 µM: read-out: 0.4 uM (% Quet)
How it was run: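 This acute differentiation assay used purified rat OPCs from postnatal day 6–7 pups, seeded into PDL/laminin-coated 96-well plates in differentiation medium lacking PDGF and FGF. Compounds were applied in quadruplicate after a 1–2 h preincubation at 37 °C, 10 % CO2, with 0.1 % DMSO negative and 40 ng/ml T3 positive controls in eight wells. After fixation on DIV4, anti-MBP immunofluorescence images yielded MBP expression/cell.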

[2] = alamarBlue viability of expanded OPCs, compound at 0.1 µM, relative to DMSO control
[3] = alamarBlue viability of expanded OPCs, compound at 1 µM, relative to DMSO control
[4] = alamarBlue viability of expanded OPCs, compound at 10 µM, relative to DMSO control
[5] = test compound at 2 uM, NCC library screen, relative to quetiapine, read-out: 2 uM (% Quet)
[6] = test compound at 10 uM, NCC library screen, relative to quetiapine, read-out: 10 uM (% Quet)
[7] = test compound at 2 uM, MBP expression relative to quetiapine, NCC library screen, read-out: 2 uM (% Quet)
[8] = test compound at 10 uM, MBP expression relative to quetiapine, NCC library screen, read-out: 10 uM (% Quet)
[9] = read-out: 0.1 µM (% DMSO), alamarBlue viability of expanded OPCs, compound at 0.1 µM, sheet All Tox data
[10] = read-out: 1 µM (% DMSO), alamarBlue viability of expanded OPCs, compound at 1 µM, sheet All Tox data
[11] = read-out: 10 µM (% DMSO), alamarBlue viability of expanded OPCs, compound at 10 µM, sheet All Tox data
[12] = 2 uM test compound, relative to quetiapine, read-out: OL differentiation, 2 uM (% Quet)
[13] = 10 uM test compound, relative to quetiapine, read-out: OL differentiation, 10 uM (% Quet)
[14] = test compound at 0.4 uM, NCC library screen, relative to quetiapine
[15] = read-out: 0.1 µM (% DMSO), alamarBlue viability, NCC library compound at 0.1 µM, sheet "All Tox data"
[16] = read-out: 1 µM (% DMSO), alamarBlue viability, NCC library compound at 1 µM, sheet "All Tox data"
[17] = read-out: 10 µM (% DMSO), alamarBlue viability, NCC library compound at 10 µM, sheet "All Tox data"

SMILES	0.1 µM (% DMSO) (expanded OPCs; [2])	1 µM (% DMSO) (expanded OPCs; [3])	10 µM (% DMSO) (expanded OPCs; [4])	viability at 0.1 µM (expanded OPCs; [9]) [%]	viability at 1 µM (expanded OPCs; [10]) [%]	viability at 10 µM (expanded OPCs; [11]) [%]	activation at 2 µM [1, 12] [%]	activation at 10 µM [1, 13] [%]	also measured
C[C@](N)(Cc1ccc(O)c(O)c1)C(=O)O [Methyldopa]	100.4	86.9	63.4						activation at 2 µM [1, 5]: -37.7%; activation at 10 µM [1, 6]: -93.8%
CC(=O)OCC(=O)[C@@]1(O)CC[C@H]2[C@@H]3C[C@H](C)C4=CC(=O)C=C[C@]4(C)[C@H]3[C@@H](O)C[C@@]21C [Methylprednisolone acetate]	106.9	104.6	95.3						activation at 2 µM [1, 7]: 3.6%; activation at 10 µM [1, 8]: -59.5%
C[C@H]1C[C@@H]2[C@H]([C@@H](O)C[C@@]3(C)[C@H]2CC[C@]3(O)C(=O)CO)[C@@]2(C)C=CC(=O)C=C12 [Methylprednisolone]	115.7	111.5	102.3						activation at 2 µM [1, 7]: -2.6%; activation at 10 µM [1, 8]: -32.2%
C[C@]12CCC(=O)C=C1CC[C@@H]1[C@@H]2CC[C@@]2(C)[C@H]1CC[C@]2(C)O [Methyltestosterone]				103	112	102	-8.1	-36.5	
CCN(CC)CCNC(=O)c1cc(Cl)c(N)cc1OC [Metoclopramide]	108.4	109.6	116.8						activation at 2 µM [1, 5]: -21.4%; activation at 10 µM [1, 6]: -26.2%
Cc1ncc([N+](=O)[O-])n1CCO [Metronidazole]				84.6	88.7	79.3	0.09	24.8	
CC(C)(C(=O)c1cccnc1)c1cccnc1 [Metyrapone]	90.5	94.0	93.4						activation at 2 µM [1, 7]: 9.9%; activation at 10 µM [1, 8]: -15%
CC[C@H](C)C(=O)O[C@H]1CCC=C2C=C[C@H](C)[C@H](CC[C@@H]3C[C@@H](O)CC(=O)O3)[C@H]21 [Mevistatin]									0.1 µM (% DMSO) (expanded OPCs; alamarBlue viability, NCC library compound at 0.1 µM, sheet "All Tox data"): 135.8 % DMSO; 1 µM (% DMSO) (expanded OPCs; alamarBlue viability, NCC library compound at 1 µM, sheet "All Tox data"): 96.3 % DMSO; 10 µM (% DMSO) (expanded OPCs; alamarBlue viability, NCC library compound at 10 µM, sheet "All Tox data"): 54.8 % DMSO; 0.4 uM (% Quet) [1, 14]: -87.3 % Quet; 2 uM (% Quet) ([1]; test compound at 2 uM, NCC library screen, relative to quetiapine): -111.9 % Quet
Cc1cccc(C)c1OCC(C)N (stereo not shown) [Mexiletine]	91.7	86.5	72.1						activation at 2 µM [1, 7]: -15.2%; activation at 10 µM [1, 8]: -7.4%
Clc1ccc(COC(Cn2ccnc2)c2ccc(Cl)cc2Cl)c(Cl)c1 (stereo not shown) [Miconazole]	91.9	108.6	9.2						activation at 0.4 µM [1, 14]: 43.2%
Cc1ncc2n1-c1ccc(Cl)cc1C(c1ccccc1F)=NC2 [Midazolam]				91	99.9	128	-15.2	-81.7	
CCC(=O)O[C@@H]1CC(=O)O[C@H](C)C/C=C/C=C/[C@H](O)[C@H](C)C[C@H](CC=O)[C@H](O[C@@H]2O[C@H](C)[C@@H](O[C@H]3C[C@@](C)(O)[C@@H](OC(=O)CC)[C@H](C)O3)[C@H](N(C)C)[C@H]2O)[C@H]1OC [Midecamycin]				92.7	95.7	91.2	-0.9	-11.3	
COc1ccc(OC)c(C(O)CNC(=O)CN)c1 (stereo not shown) [Midodrine]	90.8	88.9	89.1						activation at 2 µM [1, 5]: -2.5%; activation at 10 µM [1, 6]: 6.3%
CC#C[C@]1(O)CC[C@H]2[C@@H]3CCC4=CC(=O)CCC4=C3[C@@H](c3ccc(N(C)C)cc3)C[C@@]21C [Mifepristone]									viability at 0.1 µM (expanded OPCs; [15]): 84.5%; viability at 1 µM (expanded OPCs; [16]): 71.3%; viability at 10 µM (expanded OPCs; [17]): 26.4%; activation at 0.4 µM [1, 14]: -2.7%; activation at 2 µM [1, 5]: -139%
OCCN1C[C@H](O)[C@@H](O)[C@H](O)[C@H]1CO [Miglitol]				90.6	92.6	90.3	13.5	-3.3	
CCN(CC)C(=O)C1(c2ccccc2)CC1CN (stereo not shown) [Milnacipran]							-17.2	-8.5	viability at 0.1 µM (expanded OPCs; [15]): 88.4%; viability at 1 µM (expanded OPCs; [16]): 85.1%; viability at 10 µM (expanded OPCs; [17]): 71.2%
Cc1[nH]c(=O)c(C#N)cc1-c1ccncc1 [Milrinone]							5.1	-2.1	viability at 0.1 µM (expanded OPCs; [15]): 87.2%; viability at 1 µM (expanded OPCs; [16]): 85.8%; viability at 10 µM (expanded OPCs; [17]): 79.6%
CN(C)c1ccc(O)c2c1C[C@H]1C[C@H]3[C@H](N(C)C)C(O)=C(C(N)=O)C(=O)[C@@]3(O)C(O)=C1C2=O [Minocycline]	90.1	90.9	83.5						activation at 2 µM [1, 5]: 10.9%; activation at 10 µM [1, 6]: -13.3%
Nc1cc(N2CCCCC2)nc(N)[n+]1[O-] [Minoxidil]	93.0	102.8	89.5						activation at 2 µM [1, 7]: 13.4%; activation at 10 µM [1, 8]: -4.2%
CN1CCN2c3ncccc3Cc3ccccc3C2C1 (stereo not shown) [Mirtazapine]									viability at 0.1 µM (expanded OPCs; [15]): 94.4%; viability at 1 µM (expanded OPCs; [16]): 73%; viability at 10 µM (expanded OPCs; [17]): 60.1%; activation at 0.4 µM [1, 14]: -26.7%; activation at 2 µM [1, 5]: -35.7%
O=C(NCCN1CCOCC1)c1ccc(Cl)cc1 [Moclobemide]				99.2	110	113	9.8	-9.7	
NC(=O)C[S+]([O-])C(c1ccccc1)c1ccccc1 (stereo not shown) [Modafinil]				105	94.6	99.6	15.5	-30.2	
